Drawing on patent publication US11780843B2, “Compounds active towards nuclear receptors” (NUEVOLUTION A/S, priority 2020, dated 2023), this text covers IC50 for 20 compounds.

Where two headings read alike, the source gives them in different places.

Assay [1] concerns IL-17A secretion in activated PBMCs. The assay is described as follows: IL-17A secretion in activated PBMCs. In kind it is cell-based. Particulars: human PBMCs stimulated with CD3/CD28 Dynabeads for 48 h, absolute IC50. The source says:
Heparin-treated whole blood from healthy human volunteers was supplied from Hospital de Sant Pau (Barcelona) under the approval of the local ethical review board for human studies (Hospital de Sant Pau, Barcelona, Spain). Human peripheral blood mononuclear cells (PBMCs) were isolated from healthy human volunteers by density gradient centrifugation using the Ficoll-Paque (GE Healthcare). PBMCs were suspended in cell culture medium which consisted on RPMI 1640 medium (Sigma-Aldrich) containing 10% heat inactivated fetal bovine serum (Sigma-Aldrich), 2 mM L-Glutamine (Gibco), 20 mM Hepes (Gibco) and 100 U/mL penicillin (Sigma-Aldrich). Cells were seeded in 384-well plate (DiscoverX), at 40,000 cells per well and cultured 2 h at 37° C. and 5% CO2.
Dose-response curves with compounds were prepared using a 5-fold serial dilution (10 concentrations) in 100% DMSO and further diluted 100-fold in culture medium. Compound solutions (5 μL) were added to the plate containing cells (final DMSO concentration of 0.1%) and incubated for 30 min. Then, cells were stimulated with CD3/CD28 Dynabeads (ThermoFisher, at a bead-to-cell ratio of 1:1) for 48 h at 37° C. and 5% CO2.
IL-17A levels in supernatant were determined by immunoassay using hIL17A QBeads (Intellicyt) and by fluorescence analysis in iQue flow cytometer following the manufacturer's instructions. Inhibition of IL-17A secretion was calculated using the following formula: inhibition=100*[1−[(x−mean basal condition)/(mean top condition—mean basal condition)]]. Activated DMSO-treated cells were used as top condition and activated GNE09461 (10 μM)-treated cells as basal condition.

Assay [2] concerns the target T1, RORγ ligand-binding domain (Homo sapiens, UniProt P51449).
T1 construct: Gal4 (galactose-responsive transcription factor); expressed in transfected cells; host or cells: HEK293, transient co-transfection
T1 sequence (P51449 269-508 limits assumed): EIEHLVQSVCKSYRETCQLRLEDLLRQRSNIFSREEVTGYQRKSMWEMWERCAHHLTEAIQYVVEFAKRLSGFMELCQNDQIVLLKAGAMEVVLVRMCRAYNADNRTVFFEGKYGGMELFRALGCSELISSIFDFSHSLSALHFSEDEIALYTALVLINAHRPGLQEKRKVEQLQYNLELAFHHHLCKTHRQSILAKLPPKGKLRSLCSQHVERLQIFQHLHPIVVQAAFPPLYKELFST
The assay is described as follows: RORγ Reporter Assay (Gal4). In kind it is cell-based. The method, then:
The HEK293 cell line is co-transfected transiently with two plasmids, one with the RORγ ligand-binding domain fused to galactose-responsive transcription factor (Ga14), and the other with the luciferase reporter gene and Gal binding sites (UAS). This construction allows to determine the RORT activity in a cellular system through the measurement of luminescence.
A suspension of RORγ reporter cells was dispensed into plates and cultured 2 h at 37° C. and 5% CO2. Media formulation consisted in DMEM/F-12 medium (Gibco) supplemented with 10% heat inactivated FBS (Sigma-Aldrich), non-essential aminoacids (Sigma-Aldrich), 2 mM Glutamax (Gibco) and 100 U/mL penicillin (Sigma-Aldrich). Dose-response curves with compounds were prepared in 100% DMSO and further diluted 100-fold in culture medium. Compound solutions were added to the plate containing cells (final DMSO concentration of 0.1%) and incubated for 24 h at 37° C. and 5% CO2. Luciferase detection reagent was added to each well, and relative light units (RLUs) were quantified from each assay well using a plate reading luminometer.
Values of average RLU±S.D. were computed for all treatment sets, followed by the calculations of percent-reduction of RORT activity in response to respective test compound. The following formula was used: activity=100*[1−[[…]] where the theoretical minimum reduction (0% reduction). […] These calculations were performed in excel-fit software using X-204 model curve.
(A reporter such as luciferase makes a cellular process visible.)

[3] abbreviates: HEK293 cells, luciferase reporter, 24 h incubation, absolute IC50, read-out: IC50.

The term IC50 denotes the point on the concentration scale where inhibition reaches its midpoint. Take `NC(=O)C(CO)N1CC[C@@H](Cn2ccc3c(N(Cc4ccc(C(F)(F)F)cc4)C4CC4)ncnc32)[C@H](O)C1` (mixture of isomers) [Example P6-37, rac-2-((3R,4R)-4-((4-(Cyclopropyl(4-(trifluoromethyl)benzyl)amino)-7H-pyrrolo[2,3-d]pyrimidin-7-yl)methyl)-3-hydroxypiperidin-1-yl)-3-hydroxypropanamide]: the IC50 is 7 nM in assay [1] (Homo sapiens, PBMC, 48 h) and 2 nM in assay [2] (setting [3]).

As to `NC(=O)CN1CC[C@@H](Cn2cnc3c(N(Cc4ccc(C(F)(F)F)cc4)C4CC4)ncnc32)[C@H](O)C1` (relative stereo) [P6-26″, rel-2-((3R,4R)-4-((6-(cyclopropyl(4-(trifluoromethyl)benzyl)amino)-9H-purin-9-yl)methyl)-3-hydroxypiperidin-1-yl)acetamide], the IC50 in assay [1] (Homo sapiens, PBMC, 48 h) is 21 nM; in assay [2] (setting [3]) it was 5.1 nM.

Turning to `CCN(Cc1ccc(C(F)(F)F)cn1)c1ncnc2c1ccn2C[C@@H]1CCN(CC(N)=O)C[C@H]1O` (relative stereo) [P6-27″, rel-2-((3R,4R)-4-((4-(ethyl((5-(trifluoromethyl)pyridin-2-yl)methyl)amino)-7H-pyrrolo[2,3-d]pyrimidin-7-yl)methyl)-3-hydroxypiperidin-1-yl)acetamide], the 50% inhibitory concentration (IC50) in assay [1] (Homo sapiens, PBMC, 48 h) is 70 nM; in assay [2] (setting [3]), 12 nM.

Take `CCN(Cc1ccc(C(F)(F)F)cn1)c1ncnc2c1c(F)cn2C[C@@H]1CCN(CC(N)=O)C[C@H]1O` (relative stereo) [P6-28″, rel-2-((3R,4R)-4-((4-(ethyl((5-(trifluoromethyl)pyridin-2-yl)methyl)amino)-5-fluoro-7H-pyrrolo[2,3-d]pyrimidin-7-yl)methyl)-3-hydroxypiperidin-1-yl)acetamide]: the concentration for half-maximal inhibition (IC50) in assay [1] (Homo sapiens, PBMC, 48 h) was determined as 53 nM; in assay [2] (setting [3]) it was 8.6 nM.

Turning to `CCN(Cc1ccc(-n2cccn2)cc1)c1ncnc2c1ccn2C[C@@H]1CCN(CC(N)=O)C[C@H]1O` (relative stereo) [P6-30″, rel-2-((3R,4R)-4-((4-((4-(1H-pyrazol-1-yl)benzyl)(ethyl)amino)-7H-pyrrolo[2,3-d]pyrimidin-7-yl)methyl)-3-hydroxypiperidin-1-yl)acetamide], the IC50 turned out to be 100 nM in assay [1] (Homo sapiens, PBMC, 48 h) and 6.5 nM in assay [2] (setting [3]).

`CCN(Cc1ccc(C(F)(F)F)c(F)c1)c1ncnc2c1ccn2C[C@@H]1CCN(CC(N)=O)C[C@H]1O` (relative stereo) [P6-31″, rel-2-((3R,4R)-4-((4-(ethyl(3-fluoro-4-(trifluoromethyl)benzyl)amino)-7H-pyrrolo[2,3-d]pyrimidin-7-yl)methyl)-3-hydroxypiperidin-1-yl)acetamide]: the concentration for half-maximal inhibition (IC50) in assay [1] (Homo sapiens, PBMC, 48 h) stood at 6 nM; in assay [2] (setting [3]) it was 1.9 nM.

Regarding `CCN(Cc1ccc(C(F)(F)F)cc1F)c1ncnc2c1ccn2C[C@@H]1CCN(CC(N)=O)C[C@H]1O` (relative stereo) [P6-32″, rel-2-((3R,4R)-4-((4-(ethyl(2-fluoro-4-(trifluoromethyl)benzyl)amino)-7H-pyrrolo[2,3-d]pyrimidin-7-yl)methyl)-3-hydroxypiperidin-1-yl)acetamide], the IC50 in assay [1] (Homo sapiens, PBMC, 48 h) stood at 8.4 nM; in assay [2] (setting [3]), 2 nM.

As to `NC(=O)CN1CC[C@@H](Cn2ccc3c(N(Cc4ccc(-n5cccn5)cc4)C4CC4)ncnc32)[C@H](O)C1` (relative stereo) [P6-33″, rel-2-((3R,4R)-4-((4-((4-(1H-pyrazol-1-yl)benzyl)(cyclopropyl)amino)-7H-pyrrolo[2,3-d]pyrimidin-7-yl)methyl)-3-hydroxypiperidin-1-yl)acetamide], the IC50 came to 9.9 nM in assay [1] (Homo sapiens, PBMC, 48 h) and 8.5 nM in assay [2] (setting [3]).

For `CCN(Cc1ccc(-n2cccn2)cc1)c1ncnc2c1ccn2C[C@@]1(O)CCN(CC(N)=O)C[C@@H]1O` (relative stereo) [R5-1″, rel-2-((3R,4R)-4-((4-((4-(1H-pyrazol-1-yl)benzyl)(ethyl)amino)-7H-pyrrolo[2,3-d]pyrimidin-7-yl)methyl)-3,4-dihydroxypiperidin-1-yl)acetamide], the IC50 in assay [1] (Homo sapiens, PBMC, 48 h) is 80 nM; in assay [2] (setting [3]), 13 nM.

For the compound `NC(=O)CN1CC[C@](O)(Cn2ccc3c(N(Cc4ccc(-n5cccn5)cc4)C4CC4)ncnc32)[C@@H](O)C1` (relative stereo) [R5-2″, Rel-2-((3R,4R)-4-((4-((4-(1H-pyrazol-1-yl)benzyl)(cyclopropyl)amino)-7H-pyrrolo[2,3-d]pyrimidin-7-yl)methyl)-3,4-dihydroxypiperidin-1-yl)acetamide], the IC50 in assay [1] (Homo sapiens, PBMC, 48 h) worked out at 7.4 nM; in assay [2] (setting [3]), 8.1 nM.

With `Cn1cc(-c2ccc(CN(c3ncnc4c3ccn4C[C@@]3(O)CCN(CC(N)=O)C[C@@H]3O)C3CC3)c(F)c2)cn1` (relative stereo) [R5-3″, rel-2-((3R,4R)-4-((4-(cyclopropyl(2-fluoro-4-(1-methyl-1H-pyrazol-4-yl)benzyl)amino)-7H-pyrrolo[2,3-d]pyrimidin-7-yl)methyl)-3,4-dihydroxypiperidin-1-yl)acetamide], the IC50 is 11 nM in assay [1] (Homo sapiens, PBMC, 48 h) and 4 nM in assay [2] (setting [3]).

Consider `NC(=O)CN1CC[C@](O)(Cn2ccc3c(N(Cc4ccc(-n5cccn5)cc4F)C4CC4)ncnc32)[C@@H](O)C1` (relative stereo) [R5-4″, rel-2-((3R,4R)-4-((4-(cyclopropyl(2-fluoro-4-(1H-pyrazol-1-yl)benzyl)amino)-7H-pyrrolo[2,3-d]pyrimidin-7-yl)methyl)-3,4-dihydroxypiperidin-1-yl)acetamide], for which the IC50 in assay [1] (Homo sapiens, PBMC, 48 h) was 22 nM; in assay [2] (setting [3]), 4.3 nM.

Consider `NC(=O)CN1CC[C@](O)(Cn2ccc3c(N(Cc4ccc(C(F)(F)F)cc4)C4CC4)ncnc32)[C@@H](O)C1` (single isomer, unassigned) [Example L5-1-1-2], for which the values for the IC50 in assay [1] and in assay [2] (setting [3]) were 2.3 nM and 2 nM, respectively.

For `CCN(Cc1ccc(C(F)(F)F)cc1)c1ncnc2c1ccn2C[C@@]1(O)CCN(CC(N)=O)C[C@@H]1O` (single isomer, unassigned) [Example L5-2-1-1], the figures for the IC50 in assay [1] and in assay [2] (setting [3]) were 2.7 nM and 1.4 nM, respectively.

Regarding `CCN(Cc1ccc(C(F)(F)F)cc1)c1ncnc2c1ccn2C[C@@]1(O)CCN(CC(N)=O)C[C@@H]1O` (single isomer, unassigned) [Example L5-2-1-2], the IC50 in assay [1] (Homo sapiens, PBMC, 48 h) is 3.1 nM; in assay [2] (setting [3]), 2 nM.

As to `CCN(Cc1ccc(C(F)(F)F)cc1F)c1ncnc2c1ccn2C[C@@]1(O)CCN(CC(N)=O)C[C@@H]1O` (single isomer, unassigned) [Example L5-3-1-1], the IC50 was 9.8 nM in assay [1] (Homo sapiens, PBMC, 48 h) and 3 nM in assay [2] (setting [3]).

As to `CCN(Cc1ccc(C(F)(F)F)cc1F)c1ncnc2c1ccn2C[C@@]1(O)CCN(CC(N)=O)C[C@@H]1O` (single isomer, unassigned) [Example L5-3-1-2], the 50% inhibitory concentration (IC50) in assay [1] was found to be 10 nM; in assay [2] (setting [3]), 4.4 nM.

As for `NC(=O)CN1CC[C@@H](Cn2ccc3c(N(Cc4ccc(C(F)(F)F)cc4)C4CC4)ncnc32)[C@H](O)C1` (single isomer, unassigned) [Example P6-13-1], the IC50 in assay [1] (Homo sapiens, PBMC, 48 h) is 1.1 nM; in assay [2] (setting [3]) it was 1.6 nM; in assay [2] (stated as a bound only (Tables 5 a, 6, 7), read-out: Gal4 assay IC50) it was less than 100 nM.

In the case of `NC(=O)CN1CC[C@@H](Cn2ccc3c(N(Cc4ccc(C(F)(F)F)cc4)C4CC4)ncnc32)[C@H](O)C1` (single isomer, unassigned) [Example P6-13-2], the results for the IC50 in assay [1] and in assay [2] (setting [3]) were 1.3 nM and 2 nM, respectively.

As to `NC(=O)CN1CC[C@@H](Cn2cc(F)c3c(N(Cc4ccc(C(F)(F)F)cc4)C4CC4)ncnc32)[C@H](O)C1` (single isomer, unassigned) [Example P6-14-1], the IC50 in assay [1] amounted to 18 nM; in assay [2] (setting [3]) it was 3.8 nM.
